From PubChem BioAssay (NCI)
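Growth conditions: 96-well plates. Treatment: test compound, 48 hours, 5 concentrations. Analysis: linear interpolation between bracketing concentrations; unreached endpoints set to highest concentration. Here, GI50 denotes the concentration required for 50% inhibition of growth. At the TGI there is no net growth.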

Key:
Assay in all cases: NCI-60 cell line screen, 48 h
[1] = test system: SF-295 CNS
[2] = test system: EKVX NSCLC
[3] = test system: HCT-116 colon
[4] = test system: HCT-15 colon
[5] = test system: IGROV1 ovarian
[6] = test system: SK-OV-3 ovarian
[7] = test system: SK-MEL-5 melanoma
[8] = test system: NCI-H460 lung
[9] = test system: UACC-257 melanoma
[10] = test system: KM12 colon
[11] = test system: HOP-92 NSCLC
[12] = test system: SW-620 colon
[13] = test system: SF-268 CNS
[14] = test system: HCC-2998 colon
[15] = test system: SR leukemia
[16] = test system: HOP-62 NSCLC
[17] = test system: OVCAR-3 ovarian
[18] = test system: SNB-75 CNS
[19] = test system: M14 melanoma
[20] = test system: LOX IMVI melanoma
[21] = test system: NCI-H522 lung
[22] = test system: KM20L2 colon
[23] = test system: OVCAR-5 ovarian
[24] = test system: UACC-62 melanoma
[25] = test system: K-562 leukemia
[26] = test system: COLO 205 colon
[27] = test system: HT29 colon
[28] = test system: RXF 393 renal
[29] = test system: HL-60(TB) leukemia
[30] = test system: SK-MEL-28 melanoma
[31] = test system: MOLT-4 leukemia
[32] = test system: A549 NSCLC
[33] = test system: SK-MEL-2 melanoma
[34] = test system: U251 CNS
[35] = test system: ACHN renal
[36] = test system: OVCAR-8 ovarian
[37] = test system: SF-539 CNS
[38] = test system: MALME-3M melanoma
[39] = test system: UO-31 renal
[40] = test system: SNB-19 CNS
[41] = test system: TK-10 renal
[42] = test system: NCI-H23 lung
[43] = test system: CAKI-1 renal
[44] = test system: OVCAR-4 ovarian
[45] = test system: NCI-H226 lung
[46] = test system: NCI/ADR-RES ovarian
[47] = test system: BT-549 breast
[48] = test system: CCRF-CEM leukemia
[49] = test system: MDA-MB-435
[50] = test system: SN12C renal
[51] = test system: MCF7 breast
[52] = test system: A498 renal
[53] = test system: T-47D breast
[54] = test system: HS 578T breast
[55] = test system: MDA-N
[56] = test system: RPMI-8226 leukemia
[57] = test system: 786-0 renal
[58] = test system: PC-3 prostate
[59] = test system: DU-145 prostate
[60] = test system: MDA-MB-231 breast

Question: Which TGI [1] does the source give for O=C(N/N=C/c1cc(Br)cc(Br)c1[O-])c1ccccc1O.O=C(N/N=C/c1cc(Br)cc(Br)c1[O-])c1ccccc1O.[Co+2] here?
Answer: 12.6 µM

Question: And the TGI [2]?
Answer: 11.3 µM

Question: And the TGI [3]?
Answer: 17.7 µM

Question: And the TGI [4]?
Answer: 14.4 µM

Question: And the TGI [5]?
Answer: 8.44 µM

Question: And the TGI [6]?
Answer: 5.57 µM

Question: And the TGI [7]?
Answer: 2960 nM

Question: What about the TGI [8] of the same molecule?
Answer: 20 µM

Question: What about the TGI [9] of the same molecule?
Answer: 17.6 µM

Question: And the TGI [10]?
Answer: 21.1 µM

Question: What about the TGI [11] of the same molecule?
Answer: 6.13 µM

Question: And the TGI [12]?
Answer: 17.2 µM

Question: What about the TGI [13] of the same molecule?
Answer: 13.9 µM

Question: And the TGI [14]?
Answer: 10.5 µM

Question: And the TGI [15]?
Answer: 3.29 µM

Question: What about the TGI [16] of the same molecule?
Answer: 10.3 µM

Question: What about the TGI [17] of the same molecule?
Answer: 3.6 µM

Question: And the TGI [18]?
Answer: 15.3 µM

Question: And the TGI [19]?
Answer: 2730 nM

Question: What about the TGI [20] of the same molecule?
Answer: 12.9 µM

Question: And the TGI [21]?
Answer: 2490 nM

Question: And the TGI [22]?
Answer: 11.6 µM

Question: And the TGI [23]?
Answer: 11.1 µM

Question: And the TGI [24]?
Answer: 1780 nM

Question: What about the GI50 [25] of the same molecule?
Answer: 643 nM

Question: What about the TGI [25] of the same molecule?
Answer: 16.2 µM

Question: What about the TGI [26] of the same molecule?
Answer: 20.4 µM

Question: What about the TGI [27] of the same molecule?
Answer: 17.7 µM

Question: What about the TGI [28] of the same molecule?
Answer: 10.5 µM

Question: And the TGI [29]?
Answer: 906 nM

Question: What about the TGI [30] of the same molecule?
Answer: 14.5 µM

Question: What about the TGI [31] of the same molecule?
Answer: 14.3 µM

Question: And the TGI [32]?
Answer: 12.6 µM

Question: And the TGI [33]?
Answer: 5.4 µM

Question: What about the TGI [34] of the same molecule?
Answer: 9.38 µM

Question: What about the TGI [35] of the same molecule?
Answer: 11.1 µM

Question: And the TGI [36]?
Answer: 12.5 µM

Question: And the TGI [37]?
Answer: 4.66 µM

Question: What about the TGI [38] of the same molecule?
Answer: 18.5 µM

Question: And the TGI [39]?
Answer: 10.6 µM

Question: And the TGI [40]?
Answer: 28.4 µM

Question: And the TGI [41]?
Answer: 14.1 µM

Question: What about the TGI [42] of the same molecule?
Answer: 7.57 µM

Question: What about the TGI [43] of the same molecule?
Answer: 5.93 µM

Question: And the TGI [44]?
Answer: 3.15 µM

Question: And the TGI [45]?
Answer: 7.39 µM

Question: How did the TGI [1] turn out when CC1=C(C(=O)N[C@@H](CC(C)C)C(=O)O)N2C(=O)[C@@H](NC(=O)C(N)c3ccccc3)[C@H]2SC1 (some centres undefined) was run?
Answer: > 100 µM

Question: What about the TGI [2] of the same molecule?
Answer: > 100 µM

Question: What about the TGI [4] of the same molecule?
Answer: > 100 µM

Question: What about the TGI [5] of the same molecule?
Answer: > 100 µM

Question: What about the TGI [7] of the same molecule?
Answer: > 100000 nM

Question: What about the TGI [46] of the same molecule?
Answer: > 100 µM

Question: And the TGI [8]?
Answer: > 100 µM

Question: And the TGI [9]?
Answer: > 100 µM

Question: And the TGI [10]?
Answer: > 100 µM

Question: And the TGI [11]?
Answer: > 100 µM

Question: What about the TGI [12] of the same molecule?
Answer: > 100 µM

Question: What about the TGI [13] of the same molecule?
Answer: > 100 µM

Question: And the TGI [14]?
Answer: > 100 µM

Question: And the TGI [15]?
Answer: > 100 µM

Question: What about the TGI [47] of the same molecule?
Answer: > 100 µM

Question: And the TGI [48]?
Answer: > 100 µM

Question: What about the TGI [49] of the same molecule?
Answer: > 100 µM

Question: And the TGI [17]?
Answer: > 100 µM

Question: And the TGI [18]?
Answer: > 100 µM

Question: And the TGI [19]?
Answer: > 100000 nM

Question: And the TGI [20]?
Answer: > 100 µM

Question: And the TGI [21]?
Answer: > 100000 nM

Question: And the TGI [50]?
Answer: > 100 µM

Question: What about the TGI [51] of the same molecule?
Answer: > 100 µM

Question: And the TGI [23]?
Answer: > 100 µM

Question: And the TGI [52]?
Answer: > 100 µM

Question: What about the TGI [53] of the same molecule?
Answer: > 100 µM

Question: What about the TGI [54] of the same molecule?
Answer: > 100 µM

Question: And the TGI [24]?
Answer: > 100000 nM

Question: And the TGI [25]?
Answer: > 100 µM

Question: What about the TGI [55] of the same molecule?
Answer: > 100 µM

Question: What about the TGI [26] of the same molecule?
Answer: > 100 µM

Question: And the TGI [28]?
Answer: > 100 µM

Question: And the TGI [29]?
Answer: > 100000 nM

Question: What about the TGI [30] of the same molecule?
Answer: > 100 µM

Question: What about the TGI [31] of the same molecule?
Answer: > 100 µM

Question: What about the TGI [56] of the same molecule?
Answer: > 100 µM

Question: What about the TGI [57] of the same molecule?
Answer: > 100 µM

Question: What about the TGI [32] of the same molecule?
Answer: > 100 µM

Question: And the TGI [33]?
Answer: > 100 µM

Question: What about the TGI [34] of the same molecule?
Answer: > 100 µM

Question: What about the TGI [35] of the same molecule?
Answer: > 100 µM

Question: What about the TGI [58] of the same molecule?
Answer: > 100 µM

Question: What about the TGI [36] of the same molecule?
Answer: > 100 µM

Question: What about the TGI [37] of the same molecule?
Answer: > 100 µM

Question: And the TGI [38]?
Answer: > 100 µM

Question: What about the TGI [40] of the same molecule?
Answer: > 100 µM

Question: And the TGI [41]?
Answer: > 100 µM

Question: What about the TGI [59] of the same molecule?
Answer: > 100 µM

Question: What about the TGI [60] of the same molecule?
Answer: > 100 µM

Question: What about the TGI [43] of the same molecule?
Answer: > 100 µM

Question: What about the TGI [44] of the same molecule?
Answer: > 100 µM

Question: What about the TGI [45] of the same molecule?
Answer: > 100 µM
